Reference: patent publication US20120065187A1 (ALCON RESEARCH, LTD, priority 2008, published 2012)

Experiments:
[1] = target: T1, human H4 (Homo sapiens, UniProt Q9H3N8); test: In vitro histamine receptor cell-based assay (aequorin bioluminescence), H4 antagonism; settings: CHO-K1 cells expressing human H4, aequorin and Gα16; histamine at EC80; read-out: H4 Antagonist EC50
T1 construct: host or cells: CHO-K1
Experimental: (§1) The cell-based assays utilize an aequorin dependent bioluminescence signal. Doubly-transfected, stable CHO-K1 cell lines expressing human H1 or H4, mitochondrion-targeted aequorin, and (H4 only) human G protein Gα16 are obtained from Perkin-Elmer. Cells are maintained in F12 (Ham's) growth medium, containing 10% (vol./vol.) fetal bovine serum, penicillin (100 IU/mL), streptomycin (0.1 mg/mL), zeocin (0.25 mg/mL) and geneticin (0.40 mg/mL). Cell media components are from Invitrogen, Inc. One day prior to assay, the growth medium is replaced with the same, excluding zeocin and geneticin.
(§2) For assay preparation, growth medium is aspirated, and cells are rinsed with calcium-free, magnesium-free phosphate-buffered saline, followed by two to three minute incubation in Versene (Invitrogen, Inc.) at 37° C. Assay medium (DMEM:F12 [50:50], phenol-red free, containing 1 mg/mL protease-free bovine serum albumin) is added to collect the released cells, which are then centrifuged. The cell pellet is re-suspended in assay medium, centrifuged once more, and re-suspended in assay medium to a final density of 5×10^6 cells/mL. Coelenterazine-h dye (500 μM in ethanol) is added to a final concentration of 5 μM, and mixed immediately. The conical tube containing the cells is then wrapped with foil to protect the light-sensitive dye. The cells are incubated for four hours further at room temperature (approximately 21° C.) with end-over-end rotation to keep them in suspension.
Just before assay, the dye-loaded cells are diluted to 0.75×10^6 cells/mL (H1 receptor) or 1.5×10^6 cells/mL (H4 receptor) with additional assay medium. Cells are dispensed to 1536 well micro-titer plates at 3 μL/well. To assay receptor antagonism, 60 nl of 100× concentration test compounds in 100% dimethyl sulfoxide (DMSO) are dispensed to the wells, one compound per well, by passive pin transfer, and the plates are incubated for 15 minutes at room temperature. […] The pipette dispenses 3 μL/well of agonist (histamine, at twice the final concentration, where final concentration is a previously determined EC80) in assay medium, with concurrent bioluminescence detection. Agonist activity of test compounds is excluded by separate assays that measure response to test compounds immediately, without added histamine agonist.
(§3) CCD image capture on the Lumilux includes a 5 second baseline read prior to agonist addition, and generally a 40 second read per plate after agonist addition. A decrease in bioluminescence signal (measured either as area-under-the-curve, or maximum signal amplitude minus minimum signal amplitude) correlates with receptor antagonism in a dose dependent manner. The negative control is DMSO lacking any test compound. For antagonist assays, the positive controls are diphenhydramine (2-Diphenylmethoxy-N,N-dimethylethylamine, 10 μM final concentration, H1 receptor) or JNJ7777120 (1-[(5-Chloro-1H-indol-2-yl)carbonyl]-4-methyl-piperazine, 10 μM final concentration, H4 receptor). Efficacy is measured as a percentage of positive control activity.

[2] = target: T2, human H1 (Homo sapiens, UniProt P35367); test: In vitro histamine receptor cell-based assay (aequorin bioluminescence), H1 antagonism; settings: CHO-K1 cells expressing human H1 and aequorin; histamine at EC80; read-out: H1 Antagonist EC50
T2 construct: host or cells: CHO-K1
T2 sequence (P35367 whole entry): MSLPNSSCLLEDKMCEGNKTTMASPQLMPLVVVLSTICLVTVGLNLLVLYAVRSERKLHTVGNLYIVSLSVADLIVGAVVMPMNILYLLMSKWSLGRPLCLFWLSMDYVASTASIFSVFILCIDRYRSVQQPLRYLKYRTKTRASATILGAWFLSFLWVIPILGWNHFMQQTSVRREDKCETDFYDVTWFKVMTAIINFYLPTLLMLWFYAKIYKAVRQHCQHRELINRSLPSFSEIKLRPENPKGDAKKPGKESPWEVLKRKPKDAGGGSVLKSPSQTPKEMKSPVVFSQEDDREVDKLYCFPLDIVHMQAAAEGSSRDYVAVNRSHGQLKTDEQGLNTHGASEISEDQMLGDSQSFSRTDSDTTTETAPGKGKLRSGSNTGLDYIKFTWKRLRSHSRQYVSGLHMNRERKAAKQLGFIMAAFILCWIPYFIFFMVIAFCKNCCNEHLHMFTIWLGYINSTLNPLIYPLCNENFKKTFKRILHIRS
Experimental: as §1, §2
Just before assay, the dye-loaded cells are diluted to 0.75×10^6 cells/mL (H1 receptor) or 1.5×10^6 cells/mL (H4 receptor) with additional assay medium. Cells are dispensed to 1536 well micro-titer plates at 3 μL/well. To assay receptor antagonism, 60 nl of 100× concentration test compounds in 100% dimethyl sulfoxide (DMSO) are dispensed to the wells, one compound per well, by passive pin transfer, and the plates are incubated for 15 minutes at room temperature. Assay plates are then transferred to a Lumilux bioluminescence plate reader (Perkin-Elmer) equipped with an automated 1536 disposable tip pipette. The pipette dispenses 3 μL/well of agonist (histamine, at twice the final concentration, where final concentration is a previously determined EC80) in assay medium, with concurrent bioluminescence detection. Agonist activity of test compounds is excluded by separate assays that measure response to test compounds immediately, without added histamine agonist.
as §3

Row | EC50 [1] | EC50 [2] | SMILES
1 | > 10 µM | > 10 µM | Clc1ccc2nc(N3CC4CNCC4C3)c3nncn3c2c1 (centres unmarked) [Example 69, 8-chloro-4-(hexahydropyrrolo[3,4-c]pyrrol-2(1H)-yl)-[1,2,4]triazolo[4,3-a]quinoxaline]
2 | > 10 µM | > 10 µM | NCCNc1nc2ccc(Cl)cc2n2cnnc12 [Example 70, N^1-(8-chloro-[1,2,4]triazolo[4,3-a]quinoxalin-4-yl)ethane-1,2-diamine]
3 | > 10 µM | > 10 µM | Clc1ccc2nc(NCCN3CCOCC3)c3nncn3c2c1 [Example 71, 8-chloro-N-(2-morpholinoethyl)-[1,2,4]triazolo[4,3-a]quinoxalin-4-amine]
4 | > 10 µM | > 10 µM | Clc1ccc2nc(OC3CNC3)c3nncn3c2c1 [Example 72, 4-(azetidin-3-yloxy)-8-chloro-[1,2,4]triazolo[4,3-a]quinoxaline]
5 | > 10 µM | > 10 µM | Clc1ccc2nc(NC3CCNCC3)c3nncn3c2c1 [Example 73, 8-chloro-N-(piperidin-4-yl)-[1,2,4]triazolo[4,3-a]quinoxalin-4-amine]
6 | > 10 µM | > 10 µM | Clc1ccc2nc(OC3CCNCC3)c3nncn3c2c1 [Example 74, 8-chloro-4-(piperidin-4-yloxy)-[1,2,4]triazolo[4,3-a]quinoxaline]
7 | > 10 µM | > 10 µM | Clc1ccc2nc(OCC3CNC3)c3nncn3c2c1 [Example 75, 4-(azetidin-3-ylmethoxy)-8-chloro-[1,2,4]triazolo[4,3-a]quinoxaline]
8 | > 10 µM | > 10 µM | CN1CC[C@H](COc2nc3ccc(Cl)cc3n3cnnc23)C1 [Example 76, (S)-8-chloro-4-((1-methylpyrrolidin-3-yl)methoxy)-[1,2,4]triazolo[4,3-a]quinoxaline]
9 | > 10 µM | > 10 µM | CNCCN(C)c1nc2ccc(Cl)cc2n2cnnc12 [Example 77, N^1-(8-chloro-[1,2,4]triazolo[4,3-a]quinoxalin-4-yl)-N^1,N^2-dimethylethane-1,2-diamine]
10 | > 10 µM | > 10 µM | CN(C)CCN(C)c1nc2ccc(Cl)cc2n2cnnc12 [Example 78, N^1-(8-chloro-[1,2,4]triazolo[4,3-a]quinoxalin-4-yl)-N^1,N^2,N^2-trimethylethane-1,2-diamine]
11 | > 10 µM | > 10 µM | CN(CCN)c1nc2ccc(Cl)cc2n2cnnc12 [Example 79, N^1-(8-chloro-[1,2,4]triazolo[4,3-a]quinoxalin-4-yl)-N-1-methylethane-1,2-diamine]
12 | > 10 µM | > 10 µM | CNCCOc1nc2ccc(Cl)cc2n2cnnc12 [Example 80, 2-(8-chloro-[1,2,4]triazolo[4,3-a]quinoxalin-4-yloxy)-N-methylethanamine]
13 | > 10 µM | > 10 µM | NC1CCN(c2nc3ccc(Cl)cc3n3cnnc23)CC1 [Example 81, 1-(8-chloro-[1,2,4]triazolo[4,3-a]quinoxalin-4-yl)piperidin-4-amine]
14 | < 10 µM | > 10 µM | CC1(C)CN(c2nc3ccc(Cl)cc3n3cnnc23)CCN1 [Example 82, 8-chloro-4-(3,3-dimethylpiperazin-1-yl)-[1,2,4]triazolo[4,3-a]quinoxaline]
15 | > 10 µM | > 10 µM | C[C@@H]1CN(c2nc3ccc(Cl)cc3n3cnnc23)C[C@H](C)N1 [Example 83, 8-chloro-4-((3S,5R)-3,5-dimethylpiperazin-1-yl)-[1,2,4]triazolo[4,3-a]quinoxaline]

Continued, compound first:

Row | SMILES | EC50 [1] | EC50 [2]
16 | FC(F)(F)c1cc2nc(N3CCNCC3)c3nncn3c2cc1Cl [Example 47, 8-Chloro-4-(piperazin-1-yl)-7-(trifluoromethyl)-[1,2,4]triazolo[4,3-a]quinoxaline] | < 10 µM | > 10 µM
17 | CN1CCN(c2nc3c(F)cc(C(F)(F)F)cc3n3cnnc23)CC1 [Example 48, 6-Fluoro-4-(4-methylpiperazin-1-yl)-8-(trifluoromethyl)-[1,2,4]triazolo[4,3-a]quinoxaline] | < 10 µM | > 10 µM
18 | CN1CCN(c2nc3ccc(OC(F)(F)F)cc3n3cnnc23)CC1 [Example 50, 4-(4-methylpiperazin-1-yl)-8-(trifluoromethoxy)-[1,2,4]triazolo[4,3-a]quinoxaline] | < 10 µM | > 10 µM
19 | FC(F)(F)Oc1ccc2nc(N3CCNCC3)c3nncn3c2c1 [Example 51, 4-(piperazin-1-yl)-8-(trifluoromethoxy)-[1,2,4]triazolo[4,3-a]quinoxaline] | < 10 µM | > 10 µM
20 | Brc1ccc2c(c1)nc(N1CCNCC1)c1nncn12 [Example 53, 7-bromo-4-(piperazin-1-yl)-[1,2,4]triazolo[4,3-a]quinoxaline] | > 10 µM | > 10 µM
21 | CC(C)(C)OC(=O)N1CCN(c2nc3ccc(Cl)cc3n3cnnc23)CC1 [Example 56, tert-butyl 4-(8-chloro-[1,2,4]triazolo[4,3-a]quinoxalin-4-yl)piperazine-1-carboxylate] | > 10 µM | > 10 µM
22 | CN1CCN(c2nc3ccccc3n3cnnc23)CC1 [Example 58, 4-(4-methylpiperazin-1-yl)-[1,2,4]triazolo[4,3-a]quinoxaline] | < 10 µM | > 10 µM
23 | NC1CCN(c2nc3ccc(Cl)cc3n3cnnc23)C1 (centres unmarked) [Example 59, 1-(8-chloro-[1,2,4]triazolo[4,3-a]quinoxalin-4-yl)pyrrolidin-3-amine] | < 10 µM | > 10 µM
24 | CNC1CCN(c2nc3ccc(Cl)cc3n3cnnc23)C1 (centres unmarked) [Example 60, 1-(8-chloro-[1,2,4]triazolo[4,3-a]quinoxalin-4-yl)-N-methylpyrrolidin-3-amine] | < 10 µM | > 10 µM
25 | Clc1ccc2nc(N3CC4CCCNC4C3)c3nncn3c2c1 (centres unmarked) [Example 61, 8-chloro-4-(tetrahydro-1H-pyrrolo[3,4-b]pyridin-6(2H,7H,7aH)-yl)-[1,2,4]triazolo[4,3-a]quinoxaline] | < 10 µM | > 10 µM
26 | CN1CC2CN(c3nc4ccc(Cl)cc4n4cnnc34)CC2C1 (centres unmarked) [Example 62, 8-chloro-4-(5-methylhexahydropyrrolo[3,4-c]pyrrol-2(1H)-yl)-[1,2,4]triazolo[4,3-a]quinoxaline] | < 10 µM | > 10 µM
27 | NC1CN(c2nc3ccc(Cl)cc3n3cnnc23)C1 [Example 63, 1-(8-chloro-[1,2,4]triazolo[4,3-a]quinoxalin-4-yl)azetidin-3-amine] | < 10 µM | > 10 µM
28 | Clc1ccc2nc(N3CCN(C4CC4)CC3)c3nncn3c2c1 [Example 64, 8-chloro-4-(4-cyclopropylpiperazin-1-yl)-[1,2,4]triazolo[4,3-a]quinoxaline] | < 10 µM | > 10 µM
29 | Clc1ccc2nc(N3CCN4CCCC4C3)c3nncn3c2c1 (centres unmarked) [Example 65, 8-chloro-4-(hexahydropyrrolo[1,2-a]pyrazin-2(1H)-yl)-[1,2,4]triazolo[4,3-a]quinoxaline] | < 10 µM | > 10 µM
30 | Clc1ccc2nc(N3CC4CC3CN4)c3nncn3c2c1 (centres unmarked) [Example 67, 4-(2,5-diazabicyclo[2.2.1]heptan-2-yl)-8-chloro-[1,2,4]triazolo[4,3-a]quinoxaline] | < 10 µM | > 10 µM
31 | CN1CCCN(c2nc3ccc(Cl)cc3n3cnnc23)CC1 [Example 68, 8-chloro-4-(4-methyl-1,4-diazepan-1-yl)-[1,2,4]triazolo[4,3-a]quinoxaline] | < 10 µM | > 10 µM
